Assay results reported in ChEMBL document CHEMBL1833925, “Synthesis and structure-activity relationship of 4-quinolone-3-carboxylic acid based inhibitors of glycogen synthase kinase-3β” (Bioorg Med Chem Lett, 2011).
pIC50: −log10 of the molar value. ≈ marks a conversion by molar mass, not a printed value.

Key:
[1] = biological target: Glycogen synthase kinase-3 beta (Homo sapiens, UniProt P49841); assay: Inhibition of human recombinant full length GSK3-beta after 1 hrs by luminescence assay
Staphylococcus aureus = assay: Antibacterial activity against Staphylococcus aureus after 18 hrs by microdilution assay; format: functional
Escherichia coli = assay: Antibacterial activity against Escherichia coli after 18 hrs by microdilution assay; format: functional

Chain of Glycogen synthase kinase-3 beta (P49841 whole entry): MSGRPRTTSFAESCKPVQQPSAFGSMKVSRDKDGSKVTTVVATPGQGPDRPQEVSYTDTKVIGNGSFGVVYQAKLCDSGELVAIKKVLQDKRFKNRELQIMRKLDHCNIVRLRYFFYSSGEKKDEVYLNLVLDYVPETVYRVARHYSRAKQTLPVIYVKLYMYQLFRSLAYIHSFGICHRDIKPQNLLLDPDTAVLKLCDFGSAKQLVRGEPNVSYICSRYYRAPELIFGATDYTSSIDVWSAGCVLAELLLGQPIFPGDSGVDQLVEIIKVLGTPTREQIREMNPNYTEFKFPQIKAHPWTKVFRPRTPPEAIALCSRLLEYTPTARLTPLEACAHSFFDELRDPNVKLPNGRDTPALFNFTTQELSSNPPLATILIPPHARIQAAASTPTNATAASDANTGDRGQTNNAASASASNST

| SMILES | pIC50 [1] | MIC (Staphylococcus aureus) | MIC (Escherichia coli) |
| --- | --- | --- | --- |
| CC(C)Nc1c(F)c(N)c2c(=O)c(C(=O)O)cn(C3CC3)c2c1F | 5.92 | – | – |
| Nc1c(F)c(NC2CCCCC2)c(F)c2c1c(=O)c(C(=O)O)cn2C1CC1 | 6.22 | – | – |
| Nc1c(F)c(NCCc2c[nH]c3ccccc23)c(F)c2c1c(=O)c(C(=O)O)cn2C1CC1 | 6.18 | – | – |
| Nc1c(F)c(NCCN2CCOCC2)c(F)c2c1c(=O)c(C(=O)O)cn2C1CC1 | 5.68 | – | – |
| Nc1c(F)c(NCCc2ccccc2)c(F)c2c1c(=O)c(C(=O)O)cn2C1CC1 | 6.36 | – | – |
| Nc1c(F)c(NCCCc2ccccc2)c(F)c2c1c(=O)c(C(=O)O)cn2C1CC1 | 7.35 | – | – |
| Nc1c(F)c(NCCCCc2ccccc2)c(F)c2c1c(=O)c(C(=O)O)cn2C1CC1 | 6.54 | – | – |
| Nc1c(F)c(NCCn2ccnc2)c(F)c2c1c(=O)c(C(=O)O)cn2C1CC1 | 5.47 | – | – |
| Nc1c(F)c(NCCCn2ccnc2)c(F)c2c1c(=O)c(C(=O)O)cn2C1CC1 | 7.35 | – | – |
| Nc1c(F)c(NCCNc2cccc3ccccc23)c(F)c2c1c(=O)c(C(=O)O)cn2C1CC1 | 7.33 | – | – |
| Nc1c(F)c(NCCc2ccncc2)c(F)c2c1c(=O)c(C(=O)O)cn2C1CC1 | 7.00 | – | – |
| Nc1c(F)c(NCCNc2ccccn2)c(F)c2c1c(=O)c(C(=O)O)cn2C1CC1 | 6.72 | – | – |
| CC(C)OCCCNc1c(F)c(N)c2c(=O)c(C(=O)O)cn(C3CC3)c2c1F | 6.96 | – | – |
| COc1c(NCCCc2ccccc2)c(F)cc2c(=O)c(C(=O)O)cn(C3CC3)c12 | 4.77 | – | – |
| COc1c(NCCCc2ccccc2)c(F)c(N)c2c(=O)c(C(=O)O)cn(C3CC3)c12 | 7.19 | – | – |
| COc1c(NCCNc2cccc3ccccc23)c(F)cc2c(=O)c(C(=O)O)cn(C3CC3)c12 | 4.59 | – | – |
| COc1c(NCCNc2cccc3ccccc23)c(F)c(N)c2c(=O)c(C(=O)O)cn(C3CC3)c12 | 7.51 | – | – |

| SMILES | pIC50 [1] | MIC (Staphylococcus aureus) | MIC (Escherichia coli) |
| --- | --- | --- | --- |
| Nc1c(F)c(NCCNc2ccccn2)cc2c1c(=O)c(C(=O)O)cn2C1CC1 | 7.89 | 0.2 µM (≈ 0.0795 µg/mL) | 0.8 µM (≈ 0.318 µg/mL) |
| COc1c(NCCNc2ccccn2)c(F)c(N)c2c(=O)c(C(=O)O)cn(C3CC3)c12 | 6.80 | 1 µM (≈ 0.427 µg/mL) | 9 µM (≈ 3.85 µg/mL) |
| COc1c(NCCNc2ccccn2)c(F)c(N)c2c(=O)c(C(=O)O)cn(C3CCCC3)c12 | 5.82 | 7 µM (≈ 3.19 µg/mL) | > 28 µM |
| Nc1c(F)c(NCCNc2ccccn2)c(F)c2c1c(=O)c(C(=O)O)cn2C1CCCC1 | 7.66 | > 29 µM | > 29 µM |
| COc1c(NCCNc2ccccn2)c(F)c(N)c2c(=O)c(C(=O)O)c[nH]c12 | 6.00 | 25 µM (≈ 9.68 µg/mL) | 25 µM (≈ 9.68 µg/mL) |
| COc1c(NCCNc2ccccn2)c(F)c(N)c2c(=O)c(C(=O)O)cn(C)c12 | 6.57 | 13 µM (≈ 5.22 µg/mL) | > 13 µM |
| COc1c(NCCNc2ccccn2)c(F)c(N)c2c(=O)c(C(=O)O)cn(CCC(C)C)c12 | 4.80 | > 28 µM | > 28 µM |
| C[C@@H]1COc2c(NCCNc3ccccn3)c(F)c(N)c3c(=O)c(C(=O)O)cn1c23 | 6.25 | 243 µM (≈ 100 µg/mL) | > 243 µM |
| C[C@H]1COc2c(NCCNc3ccccn3)c(F)c(N)c3c(=O)c(C(=O)O)cn1c23 | 7.36 | 2 µM (≈ 0.827 µg/mL) | 4 µM (≈ 1.65 µg/mL) |
| CC(C)[C@@H]1COc2c(NCCNc3ccccn3)c(F)c(N)c3c(=O)c(C(=O)O)cn1c23 | 7.51 | > 2 µM | > 2 µM |
| CC(C)[C@H]1COc2c(NCCNc3ccccn3)c(F)c(N)c3c(=O)c(C(=O)O)cn1c23 | 7.12 | 14 µM (≈ 6.18 µg/mL) | > 29 µM |
| CC1(C)COc2c(NCCNc3ccccn3)c(F)c(N)c3c(=O)c(C(=O)O)cn1c23 | 7.31 | 59 µM (≈ 25.2 µg/mL) | 59 µM (≈ 25.2 µg/mL) |
| CC1(C)Cn2cc(C(=O)O)c(=O)c3c(N)c(F)c(NCCNc4ccccn4)c(c32)O1 | 6.36 | > 37 µM | > 37 µM |
| CC1(C)COc2c(NCCNc3ccccn3)c(F)c(N)c3c(=O)c(C(=O)O)cn(c23)C1 | 6.80 | > 7 µM | > 7 µM |
| Nc1c(F)c(NCCNc2ccccn2)c2c3c1c(=O)c(C(=O)O)cn3C1(CCC1)CO2 | 7.24 | > 36 µM | > 36 µM |
| Nc1c(F)c(NCCNc2ccccn2)c2c3c1c(=O)c(C(=O)O)cn3C1(CCCC1)CO2 | 7.92 | 71 µM (≈ 32.2 µg/mL) | > 71 µM |
| Nc1ccc(CCNc2c(F)c(N)c3c(=O)c(C(=O)O)cn(C4CC4)c3c2F)cc1 | 6.05 | – | – |
